# Data published in ChEMBL document CHEMBL4342426, “Structure-activity relationship of 4-azaindole-2-piperidine derivatives as agents against Trypanosoma cruzi” (Bioorg Med Chem Lett, 2020).
# Legend:
# [1] = in vitro; settings: PAMPA
# Description: Effective permeability of compound by PAMPA assay
# [2] = in vitro; settings: human, MRC5 SV2 cells
# Description: Selectivity index, ratio of IC50 for human MRC5 SV2 cells to IC50 for Trypanosoma cruzi Tulahuen CL2 amastigotes infected in human MRC5 SV2 cells
# [3] = cells; settings: Homo sapiens, MRC-5 SV2, 72 h
# Description: (§1) Cytotoxicity against human MRC5 SV2 cells assessed as reduction in cell viability incubated for 3 days by fluorimetry
# [4] = tested on: Leishmania infantum; assay: microbe, parasite or virus in culture; settings: for IC50: MHOM/MA(BE)/67/ITMAP263, 120 h; for IC90: MHOM/MA(BE)/67/ITMAP263, in Mus musculus, 120 h
# Description: Antileishmanial activity against amastigote stage of Leishmania infantum MHOM/MA(BE)/67/ITMAP263 infected in mouse peritoneal macrophage assessed as parasite growth inhibition incubated for 5 days by Giemsa staining based assay
# [5] = tested on: Trypanosoma brucei; assay: microbe, parasite or virus in culture; settings: Squib 427, 72 h
# Description: Antitrypanosomal activity against Trypanosoma brucei Squib 427 assessed as reduction in parasite growth incubated for 72 hrs by resazurin dye based fluorimetric analysis
# [6] = in vitro; settings: human, liver microsomes
# Description: Metabolic stability in human liver microsomes assessed as intrinsic clearance at 0.5 uM incubated for 30 mins by LC-MS/MS analysis
# [7] = tested on: Trypanosoma cruzi; assay: microbe, parasite or virus in culture; settings: Tulahuen CL2, MRC-5 SV2, 168 h
# Description: Antitrypanosomal activity against Trypanosoma cruzi Tulahuen CL2 amastigotes infected in human MRC5 SV2 cells incubated for 7 days by chlorophenol red beta-D-galactopyranoside substrate based spectrophotometric assay
# [8] = physchem; settings: buffer, pH 7.4
# Description: Lipophilicity, logD of compound at pH 7.4 by HPLC analysis
# [9] = tested on: Macrophage; assay: cells; settings: Mus musculus, 72 h
# Description: (§2) Cytotoxicity against mouse peritoneal Macrophage cells assessed as reduction in cell viability incubated for 3 days by fluorimetry
# [10] = in vitro; settings: mouse, liver microsomes
# Description: Metabolic stability in mouse liver microsomes assessed as intrinsic clearance at 0.5 uM incubated for 30 mins by LC-MS/MS analysis
# [11] = in vitro; settings: human, MRC5 SV2 cells; remark: listed apart in the source
# Description: Selectivity index, ratio of IC50 for human MRC5 SV2 cells to IC50 for Trypanosoma brucei rhodesiense STIB900 trypomastigotes
# [12] = in vitro; settings: mouse, peritoneal macrophages
# Description: as §2
# [13] = in vitro; settings: human, MRC5 SV2 cells; remark: listed apart in the source
# Description: as §1
# [14] = tested on: Trypanosoma brucei rhodesiense; assay: microbe, parasite or virus in culture; settings: STIB900, 72 h
# Description: Antiprotozoal activity against Trypanosoma brucei rhodesiense STIB900 trypomastigotes incubated for 72 hrs by resazurin dye based fluorimetric analysis
# [15] = in vitro; settings: mouse, liver microsomes; remark: listed apart in the source
# Description: Metabolic stability in mouse liver microsomes assessed as fraction unbound at 0.5 uM incubated for 30 mins by LC-MS/MS analysis
SMILES,Papp [1],selectivity ratio [2],IC50 [3],IC50 [4],IC90 [4],IC50 [5],IC90 [5],"CLint scaled at 0.5 h, 0.5 µM [6]","microsomal CLint at 0.5 h, 0.5 µM [6]",IC50 [7],IC90 [7],logD [8],IC50 [9],"CLint scaled at 0.5 h, 0.5 µM [10]","microsomal CLint at 0.5 h, 0.5 µM [10]",selectivity ratio [11],IC90 at 72 h [12],IC90 at 72 h [13],IC50 [14],IC90 [14],also measured
O=C(c1ccccc1)N1CC=C(c2cc3ncccc3[nH]2)CC1,1.65 ×10⁻⁶ cm/s,26.8,64 µM,24.7 µM,46.1 µM,64 µM,64 µM,< 33.3 mL/min/kg,< 23 µL/min/mg,2.39 µM,12.3 µM,2.89,64 µM,1310 mL/min/kg,305 µL/min/mg,2.1,64 µM,64 µM,30.3 µM,64 µM,
COc1cccc2[nH]c(C(=O)N3CCCC(c4cc5ncccc5[nH]4)C3)cc12 (configuration not stated),,29.4,32 µM,24.7 µM,32 µM,32 µM,32 µM,,,1.09 µM,5.34 µM,,32 µM,,,5.44,32 µM,32 µM,5.88 µM,23.4 µM,
CCN(C(=O)CCc1nc2ncccc2[nH]1)c1ccccc1,9.64 ×10⁻⁶ cm/s,1.3,64 µM,64 µM,64 µM,64 µM,64 µM,49.3 mL/min/kg,35.1 µL/min/mg,49.1 µM,64 µM,2.23,64 µM,426 mL/min/kg,102 µL/min/mg,,64 µM,64 µM,64 µM,64 µM,"fraction unbound at 0.5 h, 0.5 µM [15]: 0.767"
CC(C)c1cc(C(=O)N2CCCC(O)(c3cc4ncccc4n3S(=O)(=O)c3ccccc3)C2)on1 (configuration not stated),,1.26,64 µM,64 µM,64 µM,51.1 µM,64 µM,,,51.3 µM,64 µM,,64 µM,,,1.8,64 µM,64 µM,35.4 µM,64 µM,
CN(CCc1cc2ncccc2[nH]1)C(=O)c1ccccc1,2.85 ×10⁻⁶ cm/s,1.75,64 µM,64 µM,64 µM,64 µM,64 µM,< 30.2 mL/min/kg,< 23 µL/min/mg,36.2 µM,64 µM,1.88,64 µM,1470 mL/min/kg,382 µL/min/mg,,64 µM,64 µM,64 µM,64 µM,"fraction unbound at 0.5 h, 0.5 µM [15]: 0.83"
CCN(CCc1nc2ncc(Cl)cc2[nH]1)C(=O)c1ccc(F)cc1,11.4 ×10⁻⁶ cm/s,,64 µM,64 µM,64 µM,64 µM,64 µM,< 31.7 mL/min/kg,< 23 µL/min/mg,64 µM,64 µM,2.79,64 µM,439 mL/min/kg,108 µL/min/mg,2.1,64 µM,64 µM,30.3 µM,57.6 µM,
